From patent publication US20210171948A1, “COMPOSITIONS AND METHODS FOR TARGETING GLYPICAN-2 IN THE TREATMENT OF CANCER” (Shepherd Therapeutics, Inc., priority 2019, published 2021)
d = 2'-deoxy (DNA); r = 2'-OH (RNA)

Assays:
Type in all cases: cell-based
[1] = tested on: CHP212, SKNAS and SHSY5Y neuroblastoma cell lines; assay: Cell viability after siRNA transfection, 96 hour (Example 4, FIG. 3B); settings: 96 hour incubation (FIG. 3B)
Experimental: GPC2 mRNA knockdown was assessed in multiple neuroblastoma cell lines. Cells were transfected with either a scrambled control siRNA, with GPC2 siRNA sequences 3 or 5 from Table 7, or with siRNA sequences generated by Dharmacon (sequences 12-15 from Table 7) using the RNAiMAX Lipofectamine kit (Invitrogen, Carlsbad, Calif.) as previously described. Following a 96 hour incubation period, total RNA samples were collected to compare knockdown efficiency and viability was measured in parallel plated cells.

CHLA-172 cells = assay: Carboplatin IC50 in siRNA-transfected cells, Cell Titer Glo 2.0 viability (Example 6); settings: for Data Summary: effect of knockdown on sensitivity to carboplatin: CHLA-172; for IC50: CHLA-172 cells transfected with the labelled siRNA, carboplatin added 24 hours post transfection, 72 hour incubation
Experimental: (§1) GPC2 mRNA expression was reduced using the indicated siRNAs and changes in cell viability were assessed in multiple neuroblastoma cell lines. Cells were transfected with either a control siRNA or with GPC2 siRNA sequences 3, 5 or 7 from Table 7 using the RNAiMAX Lipofectamine kit (Invitrogen, Carlsbad, Calif.) as previously described in 96 wells for viability assays. Carboplatin was added at increasing concentrations (0 to 150 uM) to transfected cells at 24 hours post transfection. Following a 72 hour incubation period, viability measurements were made using Cell Titer Glo 2.0.

CHLA-136 cells = assay: as above; settings: for Data Summary: effect of knockdown on sensitivity to carboplatin: CHLA-136; for IC50: CHLA-136 cells transfected with the labelled siRNA, carboplatin added 24 hours post transfection, 72 hour incubation
Experimental: as §1

KELLY cells = assay: as above; settings: for IC50: KELLY cells transfected with the labelled siRNA, carboplatin added 24 hours post transfection, 72 hour incubation
Experimental: as §1

[2] = tested on: CHP212, SKNAS, SKNBE2 or CHLA90 neuroblastoma cells; assay: Tumor spheroid formation after siRNA transfection, low attachment plate (Example 11); settings: 96 hours following transfection, in cells with the highest degree of GPC2 mRNA knockdown (FIG. 6)
Experimental: The effect of GPC2 knockdown on tumor spheroid formation was assessed. CHP212, SKNAS, SKNBE2 or CHLA90 neuroblastoma cells were transfected with either a scrambled control siRNA or with a GPC2 siRNA of sequence 5 from Table 7 using the RNAiMAX Lipofectamine kit (Invitrogen, Carlsbad, Calif.), as previously described. Following transfection, cells were plated in a low attachment 96 well plate for spheroid formation while under siRNA treatment.

Substance | Viability decrease among sequences 3, 5, 12-15 [1] | Data Summary: effect of knockdown on sensitivity to carboplatin (CHLA-172 cells) | IC50 (CHLA-172 cells) | Data Summary: effect of knockdown on sensitivity to carboplatin (CHLA-136 cells) | IC50 (CHLA-136 cells) | IC50 (KELLY cells) | Tumor spheroid formation [2] | Data Summary: effect of knockdown on sensitivity to carboplatin (KELLY cells; KELLY)
GPC2 siRNA 3: siRNA duplex: sense CCUGCUUGGACCUCGAUAA[dT][dT] (SEQ ID NO: 207), anti-sense UUAUCGAGGUCCAAGCAGG[dT][dT] (SEQ ID NO: 208) (sense CCUGCUUGGACCUCGAUAANN; antisense UUAUCGAGGUCCAAGCAGGNN; 3' dTdT overhangs, chemistry not fully specified; listed as Homo sapiens) | greater viability decrease | increases sensitivity to | 100 µM | not increase sensitivity | 47 µM | 12 µM | – | –
GPC2 siRNA 5: siRNA duplex: sense CUCAGUAGCCCAGCACUCU[dT][dT] (SEQ ID NO: 211), anti-sense AGAGUGCUGGGCUACUGAG[dT][dT] (SEQ ID NO: 212) (sense CUCAGUAGCCCAGCACUCUTT; antisense AGAGUGCUGGGCUACUGAGTT; sugars from the 5' end r19 d2, backbone not given here; listed as Homo sapiens) | greater viability decrease | increases sensitivity to | 100 µM | not increase sensitivity | 36 µM | 9 µM | greatest inhibition in their ability to form spheroids | KD with sequence 5 increases
